Drawing on patent US20230159510A1, “NOVEL PRMT5 INHIBITORS” (AMGEN INC., priority 2020, published 2023), this text covers IC50 and Ki for 28 compounds.

One experiment has as its system HCT116 MTAP null cells. The experiment is described as follows: HCT116 proliferation assay, MTAP null cells (CellTiter-Glo, 6 days). To be noted: HCT116-MTAP null, 144 h, read-out: Protif_ HCT116-MTAP null IC50. It is filed as cell-based. An outline of the steps: (§1)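 Seed cells in RPMI 1640 supplemented with 10% FBS and incubate overnight at 37° C under 5% CO2. Treat with serially diluted compound (threefold steps, 8 or 9 points, highest 1 or 10 µM) or DMSO alone, then quantify viability by luminescence.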

A further experiment deals with HCT116 WT cells. The experiment is described as follows: HCT116 proliferation assay, WT cells (CellTiter-Glo, 6 days). As to conditions: Homo sapiens, HCT-116, 144 h, read-out: Prolif_HCT116-WT IC50. It is filed as cell-based. Summed up:
as §1

A further experiment concerns the target PRMT5/MEP50 (Homo sapiens, UniProt O14744). In words: MTase-Glo methyl transferase assay, Method A (Histone H4 peptide, 1 µM MTA, 24 h pre-incubation). It is filed as biochemical. More on the design: made in house. As to conditions: read-out: PRMT5 MTase Glo Ki (nM, Meth. A). An outline of the steps:
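Luminescent SAH detection (MTase-Glo) after a 2 h room-temperature methylation of 1 µM biotinylated H4 (1-21) peptide by 10 nM PRMT5/MEP50 with 5 µM SAM, in 50 mM Tris pH 8.0.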

Chain of PRMT5/MEP50 (O14744 whole entry): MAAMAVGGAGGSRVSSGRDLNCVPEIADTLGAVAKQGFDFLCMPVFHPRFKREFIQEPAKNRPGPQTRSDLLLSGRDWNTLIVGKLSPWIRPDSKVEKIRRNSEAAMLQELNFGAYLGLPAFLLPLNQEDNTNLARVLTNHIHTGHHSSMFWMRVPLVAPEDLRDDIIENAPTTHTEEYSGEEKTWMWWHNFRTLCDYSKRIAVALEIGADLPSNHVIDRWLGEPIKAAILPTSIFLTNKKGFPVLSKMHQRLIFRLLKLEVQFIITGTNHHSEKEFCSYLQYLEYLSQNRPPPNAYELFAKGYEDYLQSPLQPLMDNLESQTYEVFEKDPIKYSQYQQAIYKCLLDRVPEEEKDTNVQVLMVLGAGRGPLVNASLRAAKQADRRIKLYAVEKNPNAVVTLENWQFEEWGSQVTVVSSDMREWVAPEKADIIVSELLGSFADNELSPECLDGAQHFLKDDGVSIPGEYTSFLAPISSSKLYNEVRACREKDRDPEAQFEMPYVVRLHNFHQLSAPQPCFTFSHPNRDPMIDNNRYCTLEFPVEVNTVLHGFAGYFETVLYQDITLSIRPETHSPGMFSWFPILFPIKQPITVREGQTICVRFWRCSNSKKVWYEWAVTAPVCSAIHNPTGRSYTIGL
Chain of PRMT5/MEP50 (Q9BQA1 whole entry partner): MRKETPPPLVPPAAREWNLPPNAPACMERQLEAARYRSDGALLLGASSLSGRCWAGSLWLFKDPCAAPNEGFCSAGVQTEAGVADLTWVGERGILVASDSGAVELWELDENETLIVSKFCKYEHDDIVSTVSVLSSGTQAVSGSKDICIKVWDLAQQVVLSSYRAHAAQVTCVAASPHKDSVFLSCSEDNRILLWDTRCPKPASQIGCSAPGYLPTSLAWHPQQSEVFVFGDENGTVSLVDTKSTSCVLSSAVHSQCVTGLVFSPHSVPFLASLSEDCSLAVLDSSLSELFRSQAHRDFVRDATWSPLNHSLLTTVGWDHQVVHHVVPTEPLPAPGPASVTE

Turning to `COC[C@H](c1ccccn1)N(Cc1ccc(C(F)(F)F)cn1)C(=O)c1ccc2nc(N)c(C)cc2c1` (single isomer, unassigned) [Example 530], the IC50 is 108 nM with HCT116 MTAP null cells and 1710 nM with HCT116 WT cells. Also, the Ki at PRMT5/MEP50 came to 0.18 nM.

On to `C[C@H](c1ncccn1)N(Cc1ccc(C(F)(F)F)cn1)C(=O)c1cnc2nc(N)c(Cl)cc2c1` [Example 420, 7-amino-6-chloro-N-((1R)-1-(2-pyrimidinyl)ethyl)-N-((5-(trifluoromethyl)-2-pyridiny1)methyl)-1,8-naphthyridine-3-carboxamide], for which the IC50 in the experiment on HCT116 MTAP null cells was determined as 225 nM; in the experiment on HCT116 WT cells it was 3450 nM. The Ki on PRMT5/MEP50 amounted to 0.18 nM.

For `Cc1cc2cc(C(=O)N(Cc3ccc(C(F)(F)F)cn3)Cc3cnccn3)ccc2nc1N` [Example 336, 2-amino-3-methyl-N-(2-pyrazinylmethyl)-N-((5-(trifluoromethyl)-2-pyridinyl)methyl)-6-quinolinecarboxamide], the IC50 in the experiment with HCT116 MTAP null cells was 400 nM; in the experiment with HCT116 WT cells, over 10000 nM. In addition, the Ki on PRMT5/MEP50 came out at 0.47 nM.

Take `Cc1cc2cc(C(=O)N(Cc3ccc(C(F)(F)F)cn3)[C@@H]3COC[C@H]3O)ccc2nc1N` [Example 505, 2-amino-N-((3R,4S)-4-hydroxytetrahydro-3-furanyl)-3-methyl-N-((5-(trifluoromethyl)-2-pyridinyl)methyl)-6-quinolinecarboxamide]: the IC50 with HCT116 MTAP null cells worked out at 765 nM; with HCT116 WT cells it was 10300 nM. Besides, on PRMT5/MEP50, the Ki was found to be 2.51 nM.

Regarding `Cc1cc2cc(C(=O)N(Cc3ccc(OC(F)(F)F)cn3)[C@H](C)c3ncccn3)ccc2nc1N` (single isomer, unassigned) [Example 487], the IC50 in the experiment with HCT116 MTAP null cells came out at 26 nM; with HCT116 WT cells it was 730 nM. Also, the Ki on PRMT5/MEP50 was found to be 0.04 nM.

`Cc1cc2cc(C(=O)N(Cc3cc(C#N)ccn3)[C@H](C)c3ncccn3)ccc2nc1N` [Example 513, 2-amino-N-((4-cyano-2-pyridinyl)methyl)-3-methyl-N-((1R)-1-(2-pyrimidinyl)ethyl)-6-quinolinecarboxamide]: the IC50 was 552 nM in the experiment on HCT116 MTAP null cells and over 10000 nM with HCT116 WT cells. Also, on PRMT5/MEP50, the Ki stood at 2.61 nM.

On to `COCC(COC)N(Cc1ccc(C(F)(F)F)cn1)C(=O)c1ccc2nc(N)c(C)cc2c1` [Example 511, 2-amino-N-(1,3-dimethoxy-2-propanyl)-3-methyl-N-((5-(trifluoromethyl)-2-pyridinyl)methyl)-6-quinolinecarboxamide], for which the IC50 worked out at 192 nM in the experiment with HCT116 MTAP null cells and 2340 nM with HCT116 WT cells. Also, at PRMT5/MEP50, the Ki was 0.14 nM.

As to `Cc1cc2cc(C(=O)N(Cc3ccc(Br)cn3)[C@H](C)c3ncccn3)ccc2nc1N` [Example 402], the IC50 in the experiment with HCT116 MTAP null cells turned out to be 15 nM; with HCT116 WT cells, 526 nM. Besides, the Ki at PRMT5/MEP50 came out at 0.04 nM.

In the case of `C[C@H](c1ncccn1)N(Cc1ccc(C(F)(F)F)cn1)C(=O)c1cnc2nc(N)c(Br)cc2c1` [Example 512, 7-amino-6-bromo-N-((1R)-1-(2-pyrimidinyl)ethyl)-N-((5-(trifluoromethyl)-2-pyridinyl)methyl)-1,8-naphthyridine-3-carboxamide], the IC50 with HCT116 MTAP null cells was found to be 121 nM; in the experiment on HCT116 WT cells, 3100 nM. The Ki at PRMT5/MEP50 was 0.13 nM.

Regarding `COc1ccc(CN(C(=O)c2ccc3nc(N)c(Br)cc3c2)[C@H](C)c2ncccn2)nn1` [Example 411, 2-amino-3-bromo-N-((6-methoxy-3-pyridazinyl)methyl)-N-((1R)-1-(2-pyrimidinyl)ethyl)-6-quinolinecarboxamide], the values for the IC50 in the experiment with HCT116 MTAP null cells and in the experiment with HCT116 WT cells were 182 nM and over 10000 nM, respectively. For the same compound, the Ki on PRMT5/MEP50 was 0.22 nM.

As to `Cc1cc2cc(C(=O)N(Cc3ccc(Br)cn3)[C@@H]3CCCN(C)C3=O)ccc2nc1N` (single isomer, unassigned) [Example 448], the IC50 in the experiment with HCT116 MTAP null cells worked out at 238 nM; in the experiment on HCT116 WT cells it was 5230 nM. Also, the Ki at PRMT5/MEP50 was 0.32 nM.

Regarding `Cc1cc2cc(C(=O)N(Cc3ccc(C(F)(F)F)cn3)Cc3cnccn3)c(F)cc2nc1N` [Example 315, 2-amino-7-fluoro-3-methyl-N-(2-pyrazinylmethyl)-N-((5-(trifluoromethyl)-2-pyridinyl)methyl)-6-quinolinecarboxamide], the IC50 in the experiment on HCT116 MTAP null cells stood at 181 nM; with HCT116 WT cells, 4340 nM. In addition, on PRMT5/MEP50, the Ki worked out at 0.25 nM.

Take `C[C@H](c1ncccn1)N(Cc1ccc(C(F)F)cn1)C(=O)c1cnc2nc(N)c(Cl)cc2c1` [Example 379]: the IC50 in the experiment with HCT116 MTAP null cells is 541 nM; with HCT116 WT cells it was over 10000 nM. Further, the Ki on PRMT5/MEP50 came to 0.89 nM.

`Cc1nc(CN(C(=O)c2cnc3nc(N)c(Br)cc3c2)[C@H](C)c2ncccn2)ccc1Br` (single isomer, unassigned) [Example 470]: the results for the IC50 with HCT116 MTAP null cells and in the experiment with HCT116 WT cells were 93 nM and 2210 nM, respectively. On PRMT5/MEP50, the Ki is 0.09 nM.

Consider `Cc1cc2cc(C(=O)N(Cc3cnc4ccccc4c3)[C@H](C)c3ncccn3)ccc2nc1N` (single isomer, unassigned) [Example 447], for which the IC50 in the experiment on HCT116 MTAP null cells is 673 nM; in the experiment with HCT116 WT cells, over 10000 nM. In addition, at PRMT5/MEP50, the Ki is 5.51 nM.

In the case of `Cc1cc2cc(C(=O)N(Cc3ccc(C(F)(F)F)cn3)Cc3ncccc3C)ccc2nc1N` [Example 343, 2-amino-3-methyl-N-((3-methyl-2-pyridinyl)methyl)-N-((5-(trifluoromethyl)-2-pyridinyl)methyl)-6-quinolinecarboxamide], the results for the IC50 in the experiment with HCT116 MTAP null cells and in the experiment on HCT116 WT cells were 104 nM and 2830 nM, respectively. In addition, the Ki on PRMT5/MEP50 came to 0.66 nM.

Consider `Cc1cc2cc(C(=O)N(Cc3ncc(C#N)cc3C)[C@H](C)c3ncccn3)ccc2nc1N` [Example 549, 2-amino-N-((5-cyano-3-methyl-2-pyridinyl)methyl)-3-methyl-N-((1R)-1-(2-pyrimidinyl)ethyl)-6-quinolinecarboxamide], for which the IC50 with HCT116 MTAP null cells came to 275 nM; in the experiment with HCT116 WT cells it was 5090 nM. Also, the Ki on PRMT5/MEP50 is 0.07 nM.

In the case of `Cc1cc2cc(C(=O)N(Cc3ccc(NCC(F)(F)F)nn3)[C@H](C)c3ncccn3)ccc2nc1N` [Example 378, 2-amino-3-methyl-N-((1R)-1-(2-pyrimidinyl)ethyl)-N-((6-((2,2,2-trifluoroethyl)amino)-3-pyridazinyl)methyl)-6-quinolinecarboxamide], the IC50 in the experiment with HCT116 MTAP null cells is 340 nM; in the experiment with HCT116 WT cells it was 6960 nM. Further, the Ki on PRMT5/MEP50 is 0.04 nM.

In the case of `Cc1cc2cc(C(=O)N(Cc3ncccc3F)[C@H](C)c3ccc(C(F)(F)F)cn3)ccc2nc1N` [Example 393, 2-amino-N-((3-fluoro-2-pyridinyl)methyl)-3-methyl-N-((1R)-1-(5-(trifluoromethyl)-2-pyridinyl)ethyl)-6-quinolinecarboxamide], the values for the IC50 with HCT116 MTAP null cells and in the experiment on HCT116 WT cells were 342 nM and 8210 nM, respectively. Also, the Ki at PRMT5/MEP50 came to 0.22 nM.

Turning to `Cc1cc2cc(C(=O)N(Cc3ccc(C#N)cn3)[C@H](C)c3ncn(C)n3)ccc2nc1N` (single isomer, unassigned) [Example 531], the values for the IC50 in the experiment on HCT116 MTAP null cells and with HCT116 WT cells were 78 nM and 2830 nM, respectively. The Ki at PRMT5/MEP50 turned out to be 0.1 nM.

Consider `Cc1cc2cc(C(=O)N(Cc3ccc(C(F)(F)F)cn3)[C@@H]3CCOc4ccc(F)nc43)ccc2nc1N` (single isomer, unassigned) [Example 451], for which the IC50 with HCT116 MTAP null cells came out at 13 nM; in the experiment on HCT116 WT cells, 232 nM. Moreover, the Ki at PRMT5/MEP50 was 0.02 nM.

On to `Cc1cc2cc(C(=O)N(Cc3ccc(C(F)(F)F)cn3)[C@H](C)c3ncn(C)n3)ccc2nc1N` (single isomer, unassigned) [Example 496], for which the figures for the IC50 in the experiment with HCT116 MTAP null cells and in the experiment on HCT116 WT cells were 23 nM and 462 nM, respectively. The Ki on PRMT5/MEP50 is 0.17 nM.

Regarding `Cc1cc2cc(C(=O)N(Cc3ccc(Cl)cn3)[C@H](C)c3ncccn3)ccc2nc1N` [Example 504, 2-amino-N-((5-chloro-2-pyridinyl)methyl)-3-methyl-N-((1R)-1-(2-pyrimidinyl)ethyl)-6-quinolinecarboxamide], the values for the IC50 in the experiment with HCT116 MTAP null cells and in the experiment with HCT116 WT cells were 49 nM and 1360 nM, respectively. For the same compound, the Ki on PRMT5/MEP50 came out at 0.05 nM.

`Cc1cc2cc(C(=O)N(Cc3ccc(C(F)(F)F)cn3)C3CC3)c(F)cc2nc1N` [Example 332, 2-amino-N-cyclopropyl-7-fluoro-3-methyl-N-((5-(trifluoromethyl)-2-pyridinyl)methyl)-6-quinolinecarboxamide]: the IC50 in the experiment with HCT116 MTAP null cells is 479 nM; in the experiment with HCT116 WT cells, 5140 nM. For the same compound, the Ki on PRMT5/MEP50 worked out at 4.87 nM.

Regarding `Cc1cc2cc(C(=O)N(Cc3ccc(Cl)cn3)[C@H](C)c3ncccc3F)ccc2nc1N` [Example 401, 2-amino-N-((5-chloro-2-pyridinyl)methyl)-N-((1R)-1-(3-fluoro-2-pyridinyl)ethyl)-3-methyl-6-quinolinecarboxamide], the IC50 in the experiment with HCT116 MTAP null cells was 51 nM; in the experiment on HCT116 WT cells it was 1570 nM. For the same compound, the Ki at PRMT5/MEP50 stood at 0.08 nM.

Take `Cc1cc2cc(C(=O)N(Cc3ccc(C(F)(F)F)nn3)[C@H](C)c3cscn3)ccc2nc1N` (single isomer, unassigned) [Example 533]: the IC50 in the experiment with HCT116 MTAP null cells was 19 nM; in the experiment on HCT116 WT cells, 755 nM. Moreover, at PRMT5/MEP50, the Ki came to 0.02 nM.

For `CO[C@H](CN(Cc1ccc(C(F)(F)F)cn1)C(=O)c1ccc2nc(N)c(C)cc2c1)C(F)(F)F` (single isomer, unassigned) [Example 453], the IC50 in the experiment with HCT116 MTAP null cells was determined as 65 nM; with HCT116 WT cells, 1720 nM. Also, at PRMT5/MEP50, the Ki was 0.06 nM.

Consider `Cc1cc2cc(C(=O)N(Cc3ccc(C(F)(F)F)cn3)[C@H](C)c3ncccn3)ncc2nc1N` [Example 374, 2-amino-3-methyl-N-((1R)-1-(2-pyrimidinyl)ethyl)-N-((5-(trifluoromethyl)-2-pyridinyl)methyl)-1,7-naphthyridine-6-carboxamide], for which the IC50 in the experiment on HCT116 MTAP null cells was determined as 341 nM; in the experiment with HCT116 WT cells, 8570 nM. Also, the Ki on PRMT5/MEP50 worked out at 0.48 nM.
